Measurements: article PMC3702004, “Comparison of Intake and Systemic Relative Effect Potencies of Dioxin-like Compounds in Female Mice after a Single Oral Dose” (Environmental Health Perspectives, 2013)

How the values were obtained:
[1] = Compound analysis: liver, adipose and plasma concentrations 3 days after a single oral dose; format: in vivo, female C57BL/6 mice; details: for liver:adipose ratio (hepatic sequestration criterion 0.3): Table 1 doses; for Liver:adipose ratio: based on ng/g tissue, day 3
Protocol: (§1) Animals. Eight-week-old female C57BL/6 mice (Harlan laboratories, Venray, the Netherlands) were randomly assigned to treatment groups (six animals per group) and allowed to acclimate for 1.5 weeks. The animals were housed in groups in standard cages and conditions (23 ± 2°C, 50–60% relative humidity, 12-hr dark/light cycle) with free access to food and water. Mice received a single dose of test compound by oral gavage at a dosing volume of 10 mL/kg body weight (BW). Mice treated with corn oil vehicle (10 mL/kg BW) served as controls. For each congener, five different doses were administered, ranging from 0.5–100 μg/kg BW (TCDD) to 5,000–500,000 µg/kg BW (PCB-153). Detailed information on doses is provided in Supplemental Material, Table S1 (http://dx.doi.org/10.1289/ehp.1206336). On day 3 after dosing, animals were euthanized by CO2/O2 asphyxiation, and blood was immediately collected from the abdominal aorta. The liver, thymus, spleen, and adipose tissue were removed, weighed (liver, thymus, and spleen), snap frozen, and stored at –80°C. All animal treatments were performed with permission of the Animal Ethical Committee (DEC Utrecht) and performed according to the [Law on Animal Experiments (1977)]. Animals were treated humanely and with regard for alleviation of suffering.
(§2) Compound analysis. Adipose and liver tissues samples were homogenized in Na2SO4, followed by extraction and clean-up in one step, and then eluted with 200 mL 1:1 hexane:dichloromethane on an open column packed with 40% wt/wt H2SO4-impregnated silica and KOH-silica. Blood plasma samples were extracted on an open column using Chem-Elut (Agilent Technologies, Santa Clara, CA, USA) and then NaCl eluted with 75 mL 3:2 hexane:2-propanol. Clean-up was performed using a miniaturized silica column (as described above), and samples were eluted using 30 mL hexane. Because the samples typically contained high levels of the analytes, only a small fraction was evaporated and analyzed. Prior to evaporation, we spiked a fraction of the samples with ^13C-labeled standards. We checked potential loss of analytes during extraction and clean-up by reextracting the samples using the identical protocol used for the samples. […] Tetradecane was added prior to evaporation. Sample analysis followed the U.S. Environmental Protection Agency Method 1613 ([U.S. Environmental Protection Agency 1994]) using single ion monitoring mode on an Agilent 6809N gas chromatograph (Agilent Technologies) coupled with a Micromass Ultima Autospec Ultra high-resolution mass spectrometer (HRMS; Waters Corp., Milford, MA, USA). Compounds were separated on a 60 m × 0.25 mm DB5-MS column ([…]; J&W Scientific, Folsom, CA, USA). The HRMS was operated with electron impact ionization with electron energy of 35 eV and an ion source temperature of 250°C. To reduce the number of analyses, samples were pooled before clean-up. […] This method was used because full congener–specific separation could be achieved on the high-resolution GC–HRMS. For lipid determination, samples were evaporated to dryness after the extraction step, and the amount of lipids was determined gravimetrically. Concentrations were calculated based on lipid weight and wet weight. The analysis of samples for the PCB-118 5,000 μg/kg BW dose failed during the procedure; thus analysis for this group could not be completed.
Plasma and PBL isolation. Blood from two mice was pooled (total volume of approximately 1.4 mL); plasma and PBLs were then isolated using Ficoll Paque gradient (GE Healthcare Europe, Diegem, Belgium). Plasma samples were stored at –80°C until compound analysis. Isolated lymphocytes were lysed with RLT buffer (QIAGEN, Venlo, the Netherlands) as described in the QIAGEN RNAeasy kit protocol and stored at –80°C until use.

[2] = Body and organ weight, hepatic lipid content; format: in vivo, female C57BL/6 mice; details: day 3; for % lipid / g liver: pooled liver samples; for Dose with significant increase in liver weight vs vehicle controls: single oral dose
Protocol: as §1, §2
Statistical analysis. Statistical significant differences of the means and variances were determined using one-way analysis of variance (ANOVA) followed by Tukey-Kramer multiple comparisons. Differences were considered statistically significant at p < 0.05. Statistical calculations were performed using GraphPad 6.01 (GraphPad Software Inc.).

[3] = toxic equivalency factor relative to TCDD; ref Van den Berg et al. 2006; cited from earlier work
[4] = oral dose 5 µg/kg bw, 3 days after single oral dose
[5] = oral dose 25 µg/kg bw, 3 days after single oral dose
[6] = oral dose 100 µg/kg bw, 3 days after single oral dose
[7] = oral dose 5000 µg/kg bw, 3 days after single oral dose
[8] = oral dose 15000 µg/kg bw, 3 days after single oral dose
[9] = oral dose 50000 µg/kg bw, 3 days after single oral dose
[10] = oral dose 150000 µg/kg bw, 3 days after single oral dose

Clc1ccc(-c2cc(Cl)c(Cl)c(Cl)c2)cc1Cl [PCB-126, 3,3´,4,4´,5-pentachlorobiphenyl]
liver:adipose ratio (hepatic sequestration criterion 0.3) ([1]; 3 days after single oral dose): > 0.3
Liver:adipose ratio ([1]; dose 5 μg/kg BW): 3.2±0.3
Liver:adipose ratio ([1]; dose 25 μg/kg BW): 5.9±0.9
Liver:adipose ratio ([1]; dose 100 μg/kg BW): 9.1±0.9
Adipose % dose / g tissue [1, 4]: 12 % dose / g tissue
Liver % dose / g tissue [1, 4]: 38 % dose / g tissue
Plasma % dose / g tissue [1, 4]: 0.035 % dose / g tissue
Adipose % dose / g tissue [1, 5]: 11 % dose / g tissue
Liver % dose / g tissue [1, 5]: 65 % dose / g tissue
Plasma % dose / g tissue [1, 5]: 0.018 % dose / g tissue
Adipose % dose / g tissue [1, 6]: 5.5 % dose / g tissue
Liver % dose / g tissue [1, 6]: 51 % dose / g tissue
Plasma % dose / g tissue [1, 6]: 0.012 % dose / g tissue
Plasma % dose / g tissue ([1]; oral dose 250 µg/kg bw, 3 days after single oral dose): 0.013 % dose / g tissue
Plasma % dose / g tissue ([1]; oral dose 1000 µg/kg bw, 3 days after single oral dose): 0.014 % dose / g tissue
Body weight ([2]; oral dose 5 µg/kg bw): 19.3 ± 0.9 gram
Liver weight ([2]; oral dose 5 µg/kg bw): 4.97 ± 0.38 % of bw
Spleen weight ([2]; oral dose 5 µg/kg bw): 0.33 ± 0.04 % of bw
Thymus weight ([2]; oral dose 5 µg/kg bw): 0.27 ± 0.06 % of bw
% lipid / g liver ([2]; oral dose 5 µg/kg bw): 3.4%
Body weight ([2]; oral dose 25 µg/kg bw): 18.9 ± 1.4 gram
Liver weight ([2]; oral dose 25 µg/kg bw): 4.96 ± 0.35 % of bw
Spleen weight ([2]; oral dose 25 µg/kg bw): 0.33 ± 0.06 % of bw
Thymus weight ([2]; oral dose 25 µg/kg bw): 0.29 ± 0.05 % of bw
% lipid / g liver ([2]; oral dose 25 µg/kg bw): 3.7%
Body weight ([2]; oral dose 100 µg/kg bw): 19.5 ± 0.7 gram
Liver weight ([2]; oral dose 100 µg/kg bw): 5.07 ± 0.19 % of bw
Spleen weight ([2]; oral dose 100 µg/kg bw): 0.31 ± 0.04 % of bw
Thymus weight ([2]; oral dose 100 µg/kg bw): 0.25 ± 0.06 % of bw
% lipid / g liver ([2]; oral dose 100 µg/kg bw): 4.4%
Body weight ([2]; oral dose 250 µg/kg bw): 19.3 ± 1.3 gram
Liver weight ([2]; oral dose 250 µg/kg bw): 5.43 ± 0.19 % of bw
Spleen weight ([2]; oral dose 250 µg/kg bw): 0.32 ± 0.02 % of bw
Thymus weight ([2]; oral dose 250 µg/kg bw): 0.26 ± 0.04 % of bw
Body weight ([2]; oral dose 1000 µg/kg bw): 18.8 ± 0.9 gram
Liver weight ([2]; oral dose 1000 µg/kg bw): 5.64 ± 0.20 % of bw
Spleen weight ([2]; oral dose 1000 µg/kg bw): 0.39 ± 0.16 % of bw
Thymus weight ([2]; oral dose 1000 µg/kg bw): 0.27 ± 0.04 % of bw
Dose with significant increase in liver weight vs vehicle controls [2]: ≥ 1,000 µg/kg BW
WHO-TEF [3]: 0.1

Clc1ccc(-c2cc(Cl)c(Cl)c(Cl)c2Cl)cc1Cl [PCB-156, 2,3,3´,4,4´,5-hexachlorobiphenyl]
liver:adipose ratio (hepatic sequestration criterion 0.3) ([1]; 3 days after single oral dose): < 0.3
Liver:adipose ratio ([1]; dose 5,000 μg/kg BW): 0.09±0.02
Liver:adipose ratio ([1]; dose 15,000 μg/kg BW): 0.11±0.03
Liver:adipose ratio ([1]; dose 50,000 μg/kg BW): 0.12±0.02
tissue uptake ([1]; female, C57BL/6, mouse, in vivo, oral dose 5000 µg/kg bw, 3 days after single oral dose): 0.079 %ID/g
Adipose % dose / g tissue [1, 7]: 25 % dose / g tissue
Liver % dose / g tissue [1, 7]: 2.2 % dose / g tissue
Adipose % dose / g tissue [1, 8]: 22 % dose / g tissue
Liver % dose / g tissue [1, 8]: 2.3 % dose / g tissue
Plasma % dose / g tissue [1, 8]: 0.061 % dose / g tissue
Adipose % dose / g tissue [1, 9]: 34 % dose / g tissue
Liver % dose / g tissue [1, 9]: 4.1 % dose / g tissue
Plasma % dose / g tissue [1, 9]: 0.066 % dose / g tissue
Liver % dose / g tissue [1, 10]: 3.0 % dose / g tissue
Plasma % dose / g tissue [1, 10]: 0.045 % dose / g tissue
Plasma % dose / g tissue ([1]; oral dose 500000 µg/kg bw, 3 days after single oral dose): 0.037 % dose / g tissue
Body weight ([2]; oral dose 5000 µg/kg bw): 17.7 ± 0.7 gram
Liver weight ([2]; oral dose 5000 µg/kg bw): 4.71 ± 0.43 % of bw
Spleen weight ([2]; oral dose 5000 µg/kg bw): 0.27 ± 0.03 % of bw
Thymus weight ([2]; oral dose 5000 µg/kg bw): 0.21 ± 0.05 % of bw
% lipid / g liver ([2]; oral dose 5000 µg/kg bw): 3.0%
Body weight ([2]; oral dose 15000 µg/kg bw): 18.7 ± 1.3 gram
Liver weight ([2]; oral dose 15000 µg/kg bw): 5.14 ± 0.41 % of bw
Spleen weight ([2]; oral dose 15000 µg/kg bw): 0.30 ± 0.03 % of bw
Thymus weight ([2]; oral dose 15000 µg/kg bw): 0.23 ± 0.04 % of bw
% lipid / g liver ([2]; oral dose 15000 µg/kg bw): 3.3%
Body weight ([2]; oral dose 50000 µg/kg bw): 18.0 ± 0.9 gram
Liver weight ([2]; oral dose 50000 µg/kg bw): 5.96 ± 0.62 % of bw
Spleen weight ([2]; oral dose 50000 µg/kg bw): 0.31 ± 0.04 % of bw
Thymus weight ([2]; oral dose 50000 µg/kg bw): 0.25 ± 0.02 % of bw
% lipid / g liver ([2]; oral dose 50000 µg/kg bw): 5.7%
Body weight ([2]; oral dose 150000 µg/kg bw): 19.2 ± 1.1 gram
Liver weight ([2]; oral dose 150000 µg/kg bw): 6.79 ± 0.51 % of bw
Spleen weight ([2]; oral dose 150000 µg/kg bw): 0.29 ± 0.02 % of bw
Thymus weight ([2]; oral dose 150000 µg/kg bw): 0.21 ± 0.04 % of bw
% lipid / g liver ([2]; oral dose 150000 µg/kg bw): 6.8%
Body weight ([2]; oral dose 500000 µg/kg bw): 18.7 ± 0.6 gram
Liver weight ([2]; oral dose 500000 µg/kg bw): 8.10 ± 0.17 % of bw
Spleen weight ([2]; oral dose 500000 µg/kg bw): 0.33 ± 0.03 % of bw
Thymus weight ([2]; oral dose 500000 µg/kg bw): 0.18 ± 0.05 % of bw
Dose with significant increase in liver weight vs vehicle controls [2]: ≥ 50,000 µg/kg BW
WHO-TEF [3]: 0.00003
